Experimental data reported in patent US9709486B2, “Method of dynamic spectroscopy under physiological conditions” (INOVIEM SCIENTIFIC, priority 2012, dated 2017).

How the values were obtained:
[1] = tested on: crude membrane proteins from each patient's PBMC; experiment: Dynamic NIR spectroscopy of crude PBMC membrane proteins of IBD patients in absence and presence of infliximab; parameters: species or system human; settings: infliximab 10e-6M, samples of patients responding to infliximab, 850-1450 nm, FIG. 17
Protocol: All the patients have a treatment: infliximab (Remicad®). infliximab is an anti-TNFalpha. 50 patients (women=16, men=34) with an average age of 43±8 year seeking medical assistance at Erlangen hospital day-care unit are taking part to the study. Patient's whole blood is collected using sodium citrate vacutainer tubes (5-10 ml/patient). Samples are blinded.
Peripheral blood mononuclear cells (PBMCs) are separated and isolated on ficoll gradient from blood samples, and then frozen. Crude PBMC membranes are prepared in physiological conditions without addition of any protease inhibitor or anti-phosphatase or lyses buffer. PBMC samples were subjected to three fast deep freezing (liquid nitrogen, slow thaw at 4° C., cycle. Determination of protein concentration: total protein concentration was determined using BCA assay (BCA Protein Assay Reagent, bicinchoninic acid). […]
One variable is analyzed in presence and in absence of infliximab: Compare Individual Macromolecular Volume (INV), that is defined as the total macromolecular spectral change from −37° C. to 37° C., due to the macromolecular conformational changes in absence and presence of a drug, expressed as change in absorbance as a function of wavelength and temperature. […]
Results are analyzed based on their spectral fingerprints going from −37° C. to 37° C. and compared to identify responders and non-responders patients.

[2] = tested on: rat hypothalamus extracts; experiment: Dynamic NIR spectroscopy of rat hypothalamus extracts in presence of bithionol; settings: FIG. 11
Description: Sample buffer constituted the blank.

Compound: infliximab
- Individual Macromolecular Volume (INV), total macromolecular spectral change from −37° C. to 37° C. [1]: increases unanimously

Compound: Oc1c(Cl)cc(Cl)cc1Sc1cc(Cl)cc(Cl)c1O [bithionol]
- effect on protein assemblies / protein conformation (water molecules spectra in NIR wavelength) ([2]; 1 μM test molecule, extract 10^−6 mg/ml, −37° C. to 37° C.): disturbs the protein assemblies
- reversibility of induced conformation changes ([2]; 1 μM, visible in low temperature (most at −37° C.)): reversible as the temperature rises
